The target of the test is T1, G9a (Homo sapiens, UniProt Q96KQ7).
T1 sequence (Q96KQ7 2-1210): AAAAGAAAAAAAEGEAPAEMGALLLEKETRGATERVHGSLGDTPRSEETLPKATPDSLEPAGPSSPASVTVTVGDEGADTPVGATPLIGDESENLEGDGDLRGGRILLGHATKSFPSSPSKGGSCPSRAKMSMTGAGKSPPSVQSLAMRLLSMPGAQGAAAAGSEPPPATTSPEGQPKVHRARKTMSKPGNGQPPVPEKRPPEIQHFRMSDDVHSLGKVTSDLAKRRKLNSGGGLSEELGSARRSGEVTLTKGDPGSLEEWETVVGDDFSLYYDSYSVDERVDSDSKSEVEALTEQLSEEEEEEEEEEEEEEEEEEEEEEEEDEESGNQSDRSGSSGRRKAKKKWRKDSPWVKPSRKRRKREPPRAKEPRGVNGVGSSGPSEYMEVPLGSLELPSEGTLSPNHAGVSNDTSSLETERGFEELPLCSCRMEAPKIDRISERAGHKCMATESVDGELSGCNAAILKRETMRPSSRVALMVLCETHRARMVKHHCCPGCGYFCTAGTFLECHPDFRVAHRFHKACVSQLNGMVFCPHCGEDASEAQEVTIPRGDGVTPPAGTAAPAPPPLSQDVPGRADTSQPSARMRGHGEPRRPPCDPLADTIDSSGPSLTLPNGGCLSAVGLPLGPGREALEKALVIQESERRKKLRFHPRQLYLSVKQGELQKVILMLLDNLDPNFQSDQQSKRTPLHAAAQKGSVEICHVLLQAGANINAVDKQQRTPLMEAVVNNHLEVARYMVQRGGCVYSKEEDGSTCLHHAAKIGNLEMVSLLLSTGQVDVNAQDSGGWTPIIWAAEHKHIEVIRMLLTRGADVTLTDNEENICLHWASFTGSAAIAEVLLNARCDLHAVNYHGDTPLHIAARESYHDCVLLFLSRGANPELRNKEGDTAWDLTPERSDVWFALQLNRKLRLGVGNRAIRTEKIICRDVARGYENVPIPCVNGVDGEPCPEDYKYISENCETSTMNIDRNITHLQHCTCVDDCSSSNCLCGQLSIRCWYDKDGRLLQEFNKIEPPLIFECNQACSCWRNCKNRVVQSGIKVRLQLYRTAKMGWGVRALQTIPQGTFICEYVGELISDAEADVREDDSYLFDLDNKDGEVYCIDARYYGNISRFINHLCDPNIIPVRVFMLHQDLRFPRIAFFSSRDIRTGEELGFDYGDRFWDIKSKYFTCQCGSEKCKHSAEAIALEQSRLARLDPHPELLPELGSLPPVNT
Briefly: scintillation proximity assay of 3H-methyl transfer to histone peptide. In kind it is biochemical. In general terms: SPA uses beads or plates that emit light when radiolabelled molecules are held near them.

IC50 data for one molecule are collected here from article PMC4005005 (ChemMedChem, 2014).

Broadly, the IC50 is the concentration that gives 50% inhibition. A lower IC50 goes with inhibition by little substance.

In turn, `COc1cc2c(NC3CCN(CCCc4cn(CCOCCOCCOCCNC(=O)CCCC[C@H]5SC[C@H]6NC(=O)N[C@H]65)nn4)CC3)nc(C3CCCCC3)nc2cc1OCCCN1CCCC1` [compound 10, UNC0965] yielded an IC50 of under 2.5 nM.
